US20150132764A1, “BAG3 AS BIOCHEMICAL SERUM AND TISSUE MARKER” (BIOUNIVERSA S.R.L., priority 2012, published 2015)
One block for each molecule: values may come before it.

Key:
J774 A.1 cells [1] = assay: FACS analysis of FITC-rBAG3 binding to J774 macrophages; design: species or system murine; conditions: for % of positive cells (±S.D.): flow cytometry
Method: FIG. 3B: BAG3 binds macrophages. J774 A1 macrophages (1×10^6 cells/ml) were incubated with different concentration of Fitc-BAG3 protein (7, 14 and 70 nm). FITC-BSA (70 nM) was used as a negative control (grey). Cells fluorescence was analyzed by flow cytometry.
rBAG3 binding—J774 A.1 cells were blocked with 2% FBS+0.1% NaN3 in PBS for 15 min on ice and incubated (2.5×105/100 μl) with different concentration of FITC-rBAG3 protein (7, 14 and 70 nm) or FITC-BSA (70 nM) in PBS containing 2% FBS+0.1% NaN3 for 30 min at 4° C. in the dark. After washing with PBS, the cells were resuspended in PBS+2% FBS+0.1% NaN3 and analyzed with a FACScan (BD Biosciences) flow cytometer.

J774 A.1 cells [2] = assay: FACS competition assay of FITC-rBAG3 binding to J774 macrophages; design: species or system murine; conditions: 625 nM peptide, then 14 nM FITC-rBAG3, J774 cells
Method: In particular J774 cells were incubated with 14 nM FITC-BAG3 protein and with 625 nM of BAG3 peptides (peptide 1, peptide 2, peptide 3, peptide 4 or scrambled peptide) or with 420 nM of F(ab′)2 fragments from anti-BAG3 monoclonal and polyclonal antibodies (mouse monoclonal AC1, AC2 and rabbit polyclonal TOS2). F(ab′)2 fragments from mouse IgG or F(ab′)2 fragments from rabbit IgG were used as a negative control.
Competition—J774 A.1 cells (2.5×105/100 μl) were incubated with 625 nM of BAG3 peptides (peptide 1, peptide 2, peptide 3, peptide 4 or scrambled peptide) or with 420 nM of F(ab′)2 fragments from anti-BAG3 monoclonal and polyclonal antibodies (mouse monoclonal AC1, AC2 and rabbit polyclonal TOS2) or F(ab′)2 fragments from mouse IgG or F(ab′)2 fragments from rabbit IgG in PBS containing 2% FBS+0.1% NaN3 for 30 min on ice. After incubation the cells were washing with PBS and then were incubated with of FITC-rBAG3 protein (14 nM), in PBS containing 2% FBS+0.1% NaN3 for 30 min at 4° C. in the dark. After washing with PBS, the cells were resuspended in PBS+2% FBS+0.1% NaN3 and analyzed by flow cytometer (BD Biosciences).

HCMa cells = assay: Confocal direct fluorescence of rBAG3-FITC binding to cardiomyocytes; design: species or system Human; conditions: FITC-conjugated BAG3, 1 h, FIG. 3A
Description: FIG. 3A: Confocal microscopy analysis of direct fluorescence performed for detection of rBAG3-FITC binding to HCMa cells (a, b, c) and J774 A1 cells (d, e, f, g, h, i). BAG3 recombinant protein and purified BSA (albumin from bovine serum purchased from SIGMA) were conjugated to FITC using the FluoroTag FITC Conjugation Kit purchased from SIGMA following the manufacturer instructions. Equal amount of rBAG3-FITC (b, e) and BSA-FITC (h) proteins, calculated following the manufacturer instructions, were added in HCM and J774 A1 culture media with 0.1% NaN3 for 1 h. β-integrin was analyzed as control (a, d, g). Cells were analyzed by a Zeiss LSM confocal microscope. Merged images are shown in c, f and i.
Cells were cultured on coverslips in six-well plates to 60-70% confluence and equal amount of rBAG3-FITC and BSA-FITC proteins were added in HCMa and J774 A1 culture media with 0.1% NaN3 for 1 h. […] Samples were analyzed using a confocal laser scanning microscope (Zeiss LSM confocal microscope, Germany). […] For production of figures, brightness and contrast of images were adjusted by taking care to leave a light cellular fluorescence background for visual appreciation of the lowest fluorescence intensity features and to help comparison among the different experimental groups. […]

[3] = biological target: FITC-conjugated recombinant BAG3 protein (human) (UniProt O95817); assay: flow cytometry competition; 14 nM FITC-rBAG3 on J774 A.1 cells with 420 nM control F(ab')2
UniProt O95817, sequence (O95817 whole entry): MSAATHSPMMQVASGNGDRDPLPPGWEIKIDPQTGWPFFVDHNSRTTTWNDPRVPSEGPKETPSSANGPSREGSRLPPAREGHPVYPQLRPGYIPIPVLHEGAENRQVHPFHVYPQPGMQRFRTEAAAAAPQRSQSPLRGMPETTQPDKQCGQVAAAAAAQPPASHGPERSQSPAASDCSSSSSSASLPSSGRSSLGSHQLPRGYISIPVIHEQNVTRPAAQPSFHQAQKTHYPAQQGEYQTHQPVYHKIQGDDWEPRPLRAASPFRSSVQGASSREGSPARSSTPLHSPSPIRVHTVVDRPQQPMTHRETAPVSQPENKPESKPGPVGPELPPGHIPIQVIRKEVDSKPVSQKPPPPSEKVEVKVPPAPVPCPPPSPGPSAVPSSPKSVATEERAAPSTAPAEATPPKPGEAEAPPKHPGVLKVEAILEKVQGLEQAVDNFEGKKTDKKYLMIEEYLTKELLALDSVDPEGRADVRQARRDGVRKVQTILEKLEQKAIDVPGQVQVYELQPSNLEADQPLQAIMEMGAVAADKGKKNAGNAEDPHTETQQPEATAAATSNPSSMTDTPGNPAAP

[4] = biological target: surface of J774 A1 macrophages (unidentified BAG3 binding partner) (murine); assay: flow cytometry on J774 A.1 cells, FITC-rBAG3 minus FITC-BSA background
[5] = biological target: surface of J774 A1 macrophages (unidentified BAG3 binding partner) (murine); assay: flow cytometry on J774 A.1 cells, FITC-rBAG3
[6] = biological target: surface of J774 A1 macrophages (unidentified BAG3 binding partner) (murine); assay: flow cytometry on J774 A.1 cells, FITC-BSA negative control
J774 A.1 cells [7] = assay: IL-6 release from J774 A1 macrophages (ELISA); format: cell-based, murine; conditions: FIG. 3C panel c
Method: FIG. 3C panel c—Analysis of IL-6 release from J774 A1 macrophages incubated with BAG3. J774 A1 cells at 80% confluency macrophages were incubated with control medium, BSA, LPS or recombinant BAG3 for 5 hours. BAG3 peptides (peptide 1, peptide 2, peptide 3, peptide 4 or scrambled peptide) 625 nM were added where indicated to verify their ability to block BAG3 activity. IL-6 production was measured in cell culture medium using an ELISA test. IL-6 concentration was evaluated by comparing the OD of the sample with that of a standard curve of recombinant IL-6.
IL6 was measured in supernatant of J774 A.1 cells (5×10^4/in 96-well microplates) treated with LPS (10 ng/ml) or with rBAG3 (14 nM) or BSA (14 nM) for 10 or 20 hours in absence or presence of polymyxin B sulfate (5 μg/ml). After treatment 50 μL of cell culture medium were collected and analyzed in triplicate with a mouse IL6 Kit (eBioscience).

cyclooxygenase (Cox)-2 = assay: Cox-2 expression in J774 A1 macrophages incubated with BAG3 (Western blotting); format: cell-based, murine; conditions: J774 A1 cells, 20 hours, FIG. 3C panel a
Method: (§1) FIG. 3C: panel a—Analysis of Cox-2 and iNOS levels in J774 A1 macrophages incubated with BAG3. J774 A1 cells at 80% confluency were incubated with control medium, BSA, LPS or rBAG3, for 20 hours. Polymixin was added where indicated to verify that the effects of E. coli-derived rBAG3 were independent from the presence of contaminating endotoxin. Cox-2 and iNOS expression were analyzed in cell lysates by Western blotting.
(§2) Cells were harvested and lysed in a buffer containing 20 mM HEPES (pH 7.5), 150 mM NaCl, 0.1% Triton (TNN buffer) supplemented with a protease inhibitors cocktail (1 mM phenylmethylsulfonyl fluoride, […]) by 3 cycles of freezing and thawing. Soluble proteins were collected after a centrifugation at 10,000 g for 15 min and their amount was determined by Bradford assay (Bio-Rad, Hercules, Calif.). 25 μg of total protein and serum samples (1:2 in PBS-T 0.05%) were run on 8% or 10% SDS-PAGE gels and electrophoretically transferred to nitrocellulose membrane. […] Immunoreactivity was detected by sequential incubation with horseradish peroxidase-conjugated secondary antibodies purchased from Pierce (Rockford, Ill.) and ECL detection reagents purchased from Amersham Life Sciences Inc. (Arlington Heights, Ill., USA).

J774 A.1 cells [8] = assay: Nitrite release from J774 A1 macrophages (Griess reaction); format: cell-based, murine; conditions: 24 hours, FIG. 3C panel b
Method: FIG. 3C panel b—Analysis of nitrite release from J774 A1 macrophages incubated with BAG3. J774 A1 cells at 80% confluency were incubated with control medium, BSA, LPS or rBAG3 for 24 hours. 100 μl of supernatants from each sample were incubated with 100 μl of Griess reagent; the optical density at 550 nm (OD550) was measured with a Beckman DU62 spectrophotometer. Nitrite concentration was evaluated by comparing the OD550 of the sample with that of a standard curve of sodium nitrite.
Nitrite content (NO2^−), a stable metabolite of NO released by cells in the culture supernatant, was measured in J774 A.1 cells (5×104/in 96-well microplates) treated with LPS (10 ng/ml) or with rBAG3 (7, 14 and 28 nM) or BSA (28 nM) for 24 hours in absence or presence of polymyxin B sulfate (Sigma-Aldrich, St. Louis, Mo., USA) 5 μg/ml. NO2^− amounts were measured by Griess reaction. Briefly, 100 μL of cell culture medium were mixed with 100 μL of Griess reagent—equal volumes of 1% (w:v) sulphanilamide in 5% (v:v) phosphoric acid and 0.1% (w:v) naphtylethylenediamine-HCl—and incubated at room temperature for 10 min, and then the absorbance was measured at 550 nm in a microplate reader Titertek (Dasit, Cornaredo, Milan, Italy). The amount of NO2− (as μM) in the samples was calculated from a sodium nitrite standard curve.

[9] = system: inducible nitric oxide synthase (iNOS); assay: iNOS expression in J774 A1 macrophages incubated with BAG3 (Western blotting); format: cell-based, murine; conditions: J774 A1 cells, 20 hours, FIG. 3C panel a
Method: as §1, §2

[10] = biological target: surface of J774 A1 macrophages (unidentified BAG3 binding partner) (murine); assay: flow cytometry competition; 14 nM FITC-rBAG3 on J774 A.1 cells with 625 nM peptide

Molecule: FITC-BSA: purified albumin from bovine serum conjugated to FITC, negative control [reference compound]
% of positive cells (±S.D.) (J774 A.1 cells [1]; FITC-BSA negative control, J774 cells): 4.04 (±0.06) %

Molecule: SSPKSVATEERAAPS (listed as Homo sapiens) [Pep2, 12]
Competition assays: % inhibition (J774 A.1 cells [2]): 89.1%
Competition assays: % of positive cells (±S.D.) (J774 A.1 cells [2]): 1.21 (±0.63) %

Molecule: FITC-rBAG3: BAG3 recombinant protein conjugated to FITC
binding to the cardiomyocyte surface (in words) (HCMa cells): did not apparently bind
binding to macrophages of the cell line J774 (in words) (J774 A.1 cells [1]; FITC-conjugated BAG3, FIG. 3B): bound to macrophages
% of positive cells (±S.D.) (J774 A.1 cells [1]; FITC-rBAG3 14 nM, J774 cells): 15.7 (±0.45) %
% of positive cells (±S.D.), (FITC-rBAG3)-(FITC-BSA) (J774 A.1 cells [1]; FITC-rBAG3 signal minus FITC-BSA signal, J774 cells): 11.06 (±0.45) %

Molecule: DKGKKNAGNAEDPHT (listed as Homo sapiens) [Pep3, 13]
Competition assays: % inhibition (J774 A.1 cells [2]): 47.2%
Competition assays: % of positive cells (±S.D.) (J774 A.1 cells [2]): 5.86 (±0.43) %

Molecule: DRDPLPPGWEIKIDPQ (listed as Homo sapiens) [Pepl, 11]
Competition assays: % inhibition (J774 A.1 cells [2]): 98.4%
Competition assays: % of positive cells (±S.D.) (J774 A.1 cells [2]): 0.18 (±0.05) %

Molecule: recombinant BAG3: E. coli-derived recombinant BAG3 protein
release of interleukin (IL)-6 (J774 A.1 cells [7]): induced the release
Cox-2 levels in macrophages (cyclooxygenase (Cox)-2): enhanced
release of nitrite (J774 A.1 cells [8]): induced the release
iNOS levels in macrophages [9]: enhanced

Molecule: NPSSMTDTPGNPAAP (listed as Homo sapiens) [Pep4, 14]
Competition assays: % inhibition (J774 A.1 cells [2]): 93.8%
Competition assays: % of positive cells (±S.D.) (J774 A.1 cells [2]): 0.68 (±0.20) %

Next, values leading:

% inhibition [3]: 0%
% of positive cells [3]: 14.7%
Molecule: F(ab')2 fragments from rabbit IgG

% of positive cells [4]: 11.1%
% of positive cells [5]: 15.7%
Molecule: FITC-conjugated recombinant BAG3 protein (from UniProt O95817 1-575) (ligand)

% inhibition [3]: 0%
% of positive cells [3]: 12.3%
Molecule: F(ab')2 fragments from mouse IgG

% of positive cells [6]: 4.04%
Molecule: FITC-conjugated bovine serum albumin (from UniProt P02769 25-607)

% inhibition [10]: 89.1%
% of positive cells [10]: 1.21%
Molecule: SSPKSVATEERAAPS [BAG3 peptide 2]

% inhibition [10]: 98.4%
% of positive cells [10]: 0.18%
Molecule: DRDPLPPGWEIKIDPQ [BAG3 peptide 1]

% inhibition [10]: 93.8%
% of positive cells [10]: 0.68%
Molecule: NPSSMTDTPGNPAAP [BAG3 peptide 4]

% inhibition [10]: 47.2%
% of positive cells [10]: 5.86%
Molecule: DKGKKNAGNAEDPHT [BAG3 peptide 3]
